Source: US20240025903A1, “Bicyclic Compounds and Uses Thereof for the Treatment of Diseases” (Athira Pharma, Inc., priority 2020, published 2024)
Where two headings read alike, the source gives them in different places.

Assays:
In vivo pharmacokinetics = experiment: In vivo pharmacokinetics; design: species or system Sprague-Dawley rats; settings: both sexes, Sprague-Dawley, rat; for Tmax: plasma; for AUC: dose-corrected plasma AUC; for Cmax: dose-corrected plasma Cmax
Protocol: Administration of exemplary compounds by selected routes followed by blood collection and compound quantification in plasma was used to determine the pharmacokinetic (PK) profile of the compounds. Compounds were administered to mixed-sex Sprague-Dawley rats of at least 250 grams by dissolving the test compound in DMSO and then diluting the compound into an appropriate vehicle, either saline or saline and poly-ethylene glycol. Dosing was accomplished by either tail vein puncture (IV) or oral gavage (PO), and animals were administered compound according to their weight at 1 mL/kg. At selected intervals following administration (10, 20, 40, 60, 120, and 360 minutes), blood was collected by tail vein blood draw. Whole blood was then processed by centrifugation to produce plasma. Compound content in plasma samples was quantified by LC-MS/MS and compared to an internal standard and standard curves to determine concentration accurately. Plasma concentrations were then averaged for each time point and plotted as a function of time. Area under the curve was calculated by integration of the curve, Cmax was the highest concentration achieved in plasma, and Tmax was determined by the timing of Cmax.

[1] = In vitro stability in human plasma; format: in vitro ADME; settings: 5 μM, 37° C.
Protocol: (§1) Bioavailability can be estimated by compound stability when exposed to conditions in the body. As an initial assessment of stability properties in a variety of conditions present in animals, exemplary compounds were tested for stability in a battery of simulated body compartments. Compounds were tested for stability in the following solutions: simulated gastric fluid (SGF: 34.2 mM NaCl, pH 1.2), simulated gastric fluid with the digestive enzyme pepsin (SGF+Enzyme: SGF with 3.2 mg/ml pepsin), simulated intestinal fluid with the mixture of enzymes in porcine pancreatin (SIF+Enzyme: 28.7 mM NaH2PO4, 105.7 mM NaCl, pH 6.8, 10 mg/ml pancreatin), rat plasma, and human plasma.
(§2) Test compounds were incubated at a final concentration of 5 μM in the above solutions at 37° C. with samples removed at the following time points: 0, 1, 2, and 4 hours. Reactions were stopped and prepared for quantification by addition of excess quench solution containing an internal standard (acetonitrile, 200 ng/mL bucetin). Test compound and internal standard in each sample was quantified by LC-MS/MS, and after internal normalization to bucetin, test compound concentration was expressed as a percentage of concentration at the 0-hour time point. Stability in the relevant test solution was then determined by the percent remaining at the 4-hour time point.

[2] = In vitro stability in rat plasma; format: in vitro ADME; settings: 5 μM, 37° C.
Protocol: as §1, §2

[3] = Oral availability calculation; format: in vivo, Sprague-Dawley rats; settings: both sexes, Sprague-Dawley, plasma; rat, dose corrected AUC PO / dose corrected AUC IV x 100
Excerpt: Oral bioavailability is critical to developing small molecule therapeutics for oral administration. Calculations of oral bioavailability (% F) are accomplished by comparing in vivo pharmacokinetic data (Example B7) using IV dosing as the maximum possible exposure and determining the exposure rate after PO administration. In these studies, dose corrected AUC from PO administration was divided by dose corrected AUC from IV administration and multiplied by 100 to yield the % F. Results are shown in Table 9.

[4] = In vivo tissue distribution; design: species or system Sprague-dawley rats; settings: rat
Protocol: The rate of distribution to target tissues is an important feature of therapeutic molecules. Tissue distribution of exemplary compounds was performed in mixed-sex Sprague-dawley rats. Test compounds were delivered via tail vein injection (IV) and tissues were collected at Tmax (10 minutes post administration). Animals were deeply anesthetized with isoflurane and whole blood was collected from the right atrium and processed by centrifugation to produce plasma. Animals were then fully perfused with PBS administered to the left ventricle to prevent blood contamination of tissues.
Tissues were collected and homogenized, and compound content in the target tissue was quantified by LC-MS/MS. Tissue distribution rates were determined by dividing the tissue concentration of compound by the plasma concentration and multiplying by 100.

[5] = Parallel artificial membrane permeability assay (PAMPA); format: in vitro ADME; settings: PBS, room temperature
Procedure, shortened: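 Donor wells held compound at 200 μM in PBS (5 replicates) against PBS acceptor wells, incubated 5 h at room temperature. Donor and acceptor concentrations were read by UV against a 0–200 μM standard curve. Pe and membrane retention were calculated from the stated equations.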

[6] = In vitro stability in simulated gastric and intestinal fluids; format: in vitro ADME; settings: 37° C.; for SGF + Enz (compound remaining after 4 hours): SGF with 3.2 mg/ml pepsin; for SGF + Enz (compound remaining after 4 hours) / SIF (compound remaining after 4 hours): 5 μM; for SGF (compound remaining after 4 hours): simulated gastric fluid pH 1.2, 5 μM; for SIF (compound remaining after 4 hours): simulated intestinal fluid pH 6.8 with 10 mg/ml pancreatin
Protocol: as §1, §2

[7] = IV (tail vein), read-out: TMAX IV
[8] = PO (oral gavage), read-out: TMAX PO
[9] = IV (tail vein), read-out: AUC IV
[10] = IV (tail vein), read-out: CMAX IV
[11] = PO (oral gavage), read-out: AUC PO
[12] = PO (oral gavage), read-out: CMAX PO

SMILES | Tmax (In vivo pharmacokinetics; [7]) | Tmax (In vivo pharmacokinetics; [8]) | AUC (In vivo pharmacokinetics; [9]) | Cmax (In vivo pharmacokinetics; [10]) | AUC (In vivo pharmacokinetics; [11]) | Cmax (In vivo pharmacokinetics; [12]) | Human Plasma (compound remaining after 4 hours) [1] | Rat Plasma (compound remaining after 4 hours) [2] | bioavailability [3] | Tissue Distribution (% Plasma exposure at 10 min post IV dose) Brain [4] | Tissue Distribution (% Plasma exposure at 10 min post IV dose) Cerebellum [4] | Tissue Distribution (% Plasma exposure at 10 min post IV dose) Cortex [4] | Tissue Distribution (% Plasma exposure at 10 min post IV dose) Hippocampus [4] | Tissue Distribution (% Plasma exposure at 10 min post IV dose) Muscle [4] | Tissue Distribution (% Plasma exposure at 10 min post IV dose) Sciatic Nerve [4] | Papp at 5 h, 200 µM [5] | SGF + Enz (compound remaining after 4 hours) [6] | SGF (compound remaining after 4 hours) [6] | SIF (compound remaining after 4 hours) [6]
CCC(C)CN1CC2N(C(=O)c3ccc(OC(F)F)cc3)CCC(=O)N2[C@@H](C)C1=O (stereo partly shown) [Compound 2a] | < 30 min | 30 to 60 min | 1000 to 3000 ng·h/mL | 1000 to 3000 ng/mL | 100 to 999 ng·h/mL | 100 to 999 ng/mL | ++ (++ indicates 40-79% compound remaining after 4 hours) | ++ (++ indicates 40-79% compound remaining after 4 hours) | 25 to 50% | ++ (++ indicates distribution between 5 and 39%) | + (+ indicates distribution between 0.05 and 5%) | ++ (++ indicates distribution between 5 and 39%) | ++ (++ indicates distribution between 5 and 39%) | ++++ (++++ indicates distribution above 70%) | ++++ (++++ indicates distribution above 70%) | < 2 ×10⁻⁶ cm/s | +++ (+++ indicates 80-99% compound remaining after 4 hours) | ++++ (++++ indicates 100% compound remaining after 4 hours) | ++++ (++++ indicates 100% compound remaining after 4 hours)
CCC(C)CN1CC2N(Cc3ccc(C(F)(F)F)cc3)CCC(=O)N2[C@@H](C)C1=O (stereo partly shown) [Compound 5a] | < 30 min | 30 to 60 min | 100 to 999 ng·h/mL | 100 to 999 ng/mL | 1 to 100 ng·h/mL | 1 to 100 ng/mL | ++ (++ indicates 40-79% compound remaining after 4 hours) | ++ (++ indicates 40-79% compound remaining after 4 hours) | 1 to 25% | ++++ (++++ indicates distribution above 70%) | ++++ (++++ indicates distribution above 70%) | ++++ (++++ indicates distribution above 70%) | ++++ (++++ indicates distribution above 70%) |  |  | < 2 ×10⁻⁶ cm/s | + (+ indicates 20-39% compound remaining after 4 hours) | +++ (+++ indicates 80-99% compound remaining after 4 hours) | +++ (+++ indicates 80-99% compound remaining after 4 hours)
CCC(C)CN1CC2N(Cc3ccc(OC(F)F)cc3)CCC(=O)N2[C@@H](C)C1=O (stereo partly shown) [Compound 6a] | < 30 min | 30 to 60 min | 1000 to 3000 ng·h/mL | 1000 to 3000 ng/mL | 1 to 100 ng·h/mL | 1 to 100 ng/mL | ++ (++ indicates 40-79% compound remaining after 4 hours) | +++ (+++ indicates 80-99% compound remaining after 4 hours) | 1 to 25% | ++ (++ indicates distribution between 5 and 39%) | ++ (++ indicates distribution between 5 and 39%) | ++ (++ indicates distribution between 5 and 39%) | ++ (++ indicates distribution between 5 and 39%) | ++++ (++++ indicates distribution above 70%) | ++++ (++++ indicates distribution above 70%) | < 2 ×10⁻⁶ cm/s | + (+ indicates 20-39% compound remaining after 4 hours) | +++ (+++ indicates 80-99% compound remaining after 4 hours) | ++ (++ indicates 40-79% compound remaining after 4 hours)
CCC(C)CN1CC2N(C(=O)c3ccc(F)cc3)CCC(=O)N2C(C)C1=O (stereo not shown) [Compound 11, 1-(4-fluorobenzoyl)-6-methyl-8-(2-methylbutyl)hexahydro-4H-pyrazino[1,2-a]pyrimidine-4,7(6H)-dione] | < 30 min | < 30 min | 1000 to 3000 ng·h/mL | 100 to 999 ng/mL | 100 to 999 ng·h/mL | 100 to 999 ng/mL | +++ (+++ indicates 80-99% compound remaining after 4 hours) | ++++ (++++ indicates 100% compound remaining after 4 hours) | 25 to 50% | ++ (++ indicates distribution between 5 and 39%) | + (+ indicates distribution between 0.05 and 5%) | + (+ indicates distribution between 0.05 and 5%) | + (+ indicates distribution between 0.05 and 5%) |  | ++ (++ indicates distribution between 5 and 39%) | > 2 ×10⁻⁶ cm/s | +++ (+++ indicates 80-99% compound remaining after 4 hours) | +++ (+++ indicates 80-99% compound remaining after 4 hours) | ++++ (++++ indicates 100% compound remaining after 4 hours)
